Measurements reported in patent US20240245658A1, “TAAR1 AND SEROTONIN MODULATORS, AND PHARMACEUTICAL COMPOSITIONS, AND METHODS OF USE THEREOF” (Sunovion Pharmaceuticals Inc., priority 2021, published 2024).
Like-named read-outs stand apart in the source and are kept apart here.

Legend:
Type in all cases: cell-based
human 5-HT7 receptor = biological target: T1, human 5-HT7 receptor (Homo sapiens, UniProt P34969); assay: 5HT7 Antagonism Assay (Euroscreen FAST-0499C), cAMP HTRF; details: CHO-K1 cells expressing human 5-HT7, reference agonist at EC80, cAMP HTRF
T1 construct: host or cells: CHO-K1
T1 sequence (P34969 whole entry): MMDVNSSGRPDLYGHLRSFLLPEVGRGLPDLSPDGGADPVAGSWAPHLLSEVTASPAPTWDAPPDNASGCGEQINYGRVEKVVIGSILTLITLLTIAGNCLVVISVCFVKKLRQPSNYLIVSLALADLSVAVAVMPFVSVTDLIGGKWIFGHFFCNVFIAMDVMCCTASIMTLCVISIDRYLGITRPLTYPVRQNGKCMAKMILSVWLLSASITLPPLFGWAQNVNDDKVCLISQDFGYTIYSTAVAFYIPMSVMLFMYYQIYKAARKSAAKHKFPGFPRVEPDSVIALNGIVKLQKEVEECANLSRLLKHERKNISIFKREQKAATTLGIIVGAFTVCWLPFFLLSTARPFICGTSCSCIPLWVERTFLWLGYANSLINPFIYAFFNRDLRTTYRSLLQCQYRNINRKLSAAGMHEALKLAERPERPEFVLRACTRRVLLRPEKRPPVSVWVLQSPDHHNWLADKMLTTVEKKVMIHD
Experimental: 5HT7 Antagonism Assay Protocol (Euroscreen FAST-0499C)
CHO-K1 cells expressing the human 5-HT7 receptor, grown prior to the test in media without antibiotic, were detached by gentle flushing with PBS-EDTA (5 mM EDTA), recovered by centrifugation and resuspended in assay buffer (Krebs-Ringer HEPES buffer: 5 mM KCl, 1.25 mM MgSO4, 124 mM NaCl, 25 mM HEPES, 13.3 mM Glucose, 1.25 mM KH2PO4, 1.45 mM CaCl2), 0.5 g/l BSA, supplemented with 1 mM IBMX).
Dose response curves were performed in parallel with reference compounds (e.g., 5-carboxamidotryptamine (5-CT)).
For antagonist testing in a 384 well plate: 5 μl of cells (3000 cells) were mixed with 5 μl of a mix of test compound and reference agonist (for a final assay concentration corresponding to its EC80) diluted in assay buffer. The plates were then incubated for about 30 minutes at about room temperature. After addition of the lysis buffer containing cAMP-d2 and anti-cAMP cryptate detection reagents, plates were incubated for about 1 hour at about room temperature, and fluorescence ratios were measured according to the manufacturer's specifications (HTRF kit: cAMP Gs dynamic kit, Cisbio Bioassays, 62AM4PEJ).
(§1) Compounds were tested at the following nanomolar concentrations, in duplicate: 0.3 nM, 1 nM, 3 nM, 10 nM, 30 nM, 100 nM, 300 nM, 1,000 nM, 3,000 nM, and 10,000 nM.

human TAAR1 receptors = biological target: T2, human TAAR1 receptors (Homo sapiens, UniProt Q96RJ0); assay: TAAR1 Agonism Assay: cAMP HTRF assay for Gs coupled receptor TAAR1 (Euroscreen FAST-0987C); details: CHO-K1 cells expressing human TAAR1, cAMP HTRF
T2 construct: host or cells: CHO-K1
T2 sequence (Q96RJ0 1-339): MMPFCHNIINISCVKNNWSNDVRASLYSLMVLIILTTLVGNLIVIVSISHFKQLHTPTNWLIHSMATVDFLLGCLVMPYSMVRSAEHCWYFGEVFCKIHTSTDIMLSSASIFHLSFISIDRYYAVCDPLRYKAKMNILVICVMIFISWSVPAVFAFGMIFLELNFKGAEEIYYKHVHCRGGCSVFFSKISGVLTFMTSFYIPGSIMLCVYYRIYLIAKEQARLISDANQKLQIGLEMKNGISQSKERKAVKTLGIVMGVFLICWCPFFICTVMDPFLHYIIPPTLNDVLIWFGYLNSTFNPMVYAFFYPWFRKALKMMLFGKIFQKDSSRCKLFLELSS
Experimental: Dose response curves were performed in parallel with the reference compound, tyramine.
For the TAAR1 agonist test (performed in a 384 well plate): 5 μl of cells (about 3,000 cells) were mixed with 5 μl of the test compound diluted in assay buffer and then incubated for about 30 minutes at about room temperature. After addition of the lysis buffer containing cAMP-d2 and anti-cAMP cryptate detection reagents, plates were incubated for about a 1-hour incubation at about room temperature, and fluorescence ratios were measured according to the manufacturer specifications, with the HTRF (Homogeneous Time Resolved Fluorescence) kit (cAMP Gs dynamic kit, Cisbio Bioassays, 62AM4PEJ).
as §1

human 5-HT2A receptor = biological target: T3, human 5-HT2A receptor (Homo sapiens, UniProt P28223); assay: 5HT2A Antagonism Assay (Euroscreen FAST-05051), IP-One HTRF
T3 construct: host or cells: CHO-K1
T3 sequence (P28223 whole entry): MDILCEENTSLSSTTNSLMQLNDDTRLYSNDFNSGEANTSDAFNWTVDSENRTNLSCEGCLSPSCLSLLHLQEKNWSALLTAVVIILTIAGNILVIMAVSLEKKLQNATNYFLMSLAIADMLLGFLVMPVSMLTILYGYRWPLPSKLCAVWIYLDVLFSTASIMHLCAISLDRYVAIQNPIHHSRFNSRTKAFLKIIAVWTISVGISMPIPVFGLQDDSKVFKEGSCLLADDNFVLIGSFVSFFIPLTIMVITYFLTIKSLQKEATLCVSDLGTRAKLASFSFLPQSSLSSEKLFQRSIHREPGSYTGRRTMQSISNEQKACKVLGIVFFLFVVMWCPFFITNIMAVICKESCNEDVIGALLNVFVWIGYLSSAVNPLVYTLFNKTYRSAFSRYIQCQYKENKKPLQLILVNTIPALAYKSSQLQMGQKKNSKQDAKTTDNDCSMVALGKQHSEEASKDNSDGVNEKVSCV
Experimental: 5HT2A Antagonism Assay Protocol (Euroscreen FAST-05051)
CHO-K1 cells expressing the human 5-HT2A receptor grown to mid-log phase in culture media without antibiotics, were detached with PBS-EDTA, centrifuged, and resuspended in the IP-One Gq kit (Cisbio Bioassays, 62IPAPEC) stimulation buffer.
For antagonist testing in a 384 well plate: 5 μl of cells (20,000 cells) were mixed with 5 μl of a mix of test compound and reference agonist (for a final assay concentration corresponding to its EC80) diluted in stimulation buffer. The plate was incubated for 60 minutes at 37° C. in a humidified atmosphere of 95% air with 5% CO2, then 5 μL of IP1-d2 and anti-IP1 cryptate detection reagents were added to each well, the plates were incubated for about 1 hour at about room temperature. Fluorescence ratios are measured according to the manufacturer's specification (IP-One Gq kit (Cisbio Bioassays, 62IPAPEC).
Dose response curves were performed in parallel with reference compounds (e.g., α-methyl-5-HT. Compounds were tested at the following nanomolar concentrations, in duplicate: 0.3 nM, 1 nM, 3 nM, 10 nM, 30 nM, 100 nM, 300 nM, 1,000 nM, 3,000 nM, and 10,000 nM

[1] = read-out: 5-HT2A (IC50), CHO-K1 cells expressing human 5-HT2A, reference agonist at EC80, IP-One
[2] = 5-HT2A (IC50), CHO-K1 cells expressing human 5-HT2A, reference agonist at EC80, IP-One
[3] = CHO-K1 cells expressing human 5-HT2A, reference agonist at EC80, IP-One, read-out: 5-HT2A (IC50)

SMILES	IC50 (human 5-HT7 receptor)	EC50 (human TAAR1 receptors)	IC50 (human 5-HT2A receptor; [1])	IC50 (human 5-HT2A receptor; [2])	IC50 (human 5-HT2A receptor; [3])
CNCC1Cc2ccccc2Oc2cc(F)ccc21 (single isomer, unassigned) [Compound 4, (S*)-1-(7-fluoro-10,11-dihydrodibenzo[b,f]oxepin-10-yl)-N-methylmethanamine]	1 to 10 µM	< 1000 nM	< 1000 nM		
CNCC1Cc2ccccc2Oc2cccnc21 (single isomer, unassigned) [Compound 5, (S*)-1-(10,11-dihydrobenzo[6,7]oxepino[3,2-b]pyridin-11-yl)-N-methylmethanamine]	< 1 µM	< 1000 nM		< 1000 nM	
CNCC1Cc2ccccc2Oc2cccnc21 (single isomer, unassigned) [Compound 6, (R*)-1-(10,11-dihydrobenzo-[6,7]oxepino[3,2-b]pyridin-11-yl)-N-methylmethanamine]	≥ 10 µM	< 1000 nM		1000 to 10000 nM	
NCC1Cc2ccccc2Oc2cccnc21 (single isomer, unassigned) [Compound 7, (S*)-(10,11-dihydrobenzo[6,7]oxepino[3,2-b]pyridin-11-yl)methanamine]	1 to 10 µM	< 1000 nM		> 10000 nM	
NCC1Cc2ccccc2Oc2cccnc21 (single isomer, unassigned) [Compound 8, (R*)-(10,11-dihydrobenzo[6,7]oxepino[3,2-b]pyridin-11-yl)methanamine]	≥ 10 µM	< 1000 nM	> 10000 nM		
NCC1Cc2cccnc2Oc2ccccc21 (single isomer, unassigned) [Compound 17, (R*)-(5,6-dihydrobenzo[6,7]oxepino[2,3-b]pyridin-6-yl)methanamine]	≥ 10 µM	< 1000 nM		< 1000 nM	
NCC1Cc2cccnc2Oc2ccccc21 (single isomer, unassigned) [Compound 18, (S*)-(5,6-dihydrobenzo[6,7]oxepino[2,3-b]pyridin-6-yl)methanamine]	≥ 10 µM	> 10000 nM		> 10000 nM	
CNCC1Cc2cccnc2Oc2ccccc21 (single isomer, unassigned) [Compound 19, (R*)-1-(5,6-dihydrobenzo[6,7]oxepino[2,3-b]pyridin-6-yl)-N-methylmethanamine]	≥ 10 µM	1000 to 10000 nM			1000 to 10000 nM
CNCC1Cc2cccnc2Oc2ccccc21 (single isomer, unassigned) [Compound 20, (S*)-1-(5,6-dihydrobenzo[6,7]oxepino[2,3-b]pyridin-6-yl)-N-methylmethanamine]	≥ 10 µM	> 10000 nM			> 10000 nM
NCC1Cc2ccncc2Oc2ccccc21 (single isomer, unassigned) [Compound 21, (R*)-(5,6-dihydrobenzo[6,7]oxepino[2,3-c]pyridin-6-yl)methanamine]	≥ 10 µM	< 1000 nM		1000 to 10000 nM	
NCC1Cc2ccncc2Oc2ccccc21 (single isomer, unassigned) [Compound 22, (S*)-(5,6-dihydrobenzo[6,7]oxepino[2,3-c]pyridin-6-yl)methanamine]	≥ 10 µM	1000 to 10000 nM	1000 to 10000 nM		
CNCC1Cc2ccncc2Oc2ccccc21 (single isomer, unassigned) [Compound 23, (R*)-1-(5,6-dihydrobenzo[6,7]oxepino[2,3-c]pyridin-6-yl)-N-methylmethanamine]	< 1 µM	< 1000 nM		< 1000 nM	
CNCC1Cc2ccncc2Oc2ccccc21 (single isomer, unassigned) [Compound 24, (S*)-1-(5,6-dihydrobenzo[6,7]oxepino[2,3-c]pyridin-6-yl)-N-methylmethanamine]	1 to 10 µM	> 10000 nM	< 1000 nM		
NCC1Cc2ncccc2Oc2ccccc21 (single isomer, unassigned) [Compound 29, (R*)-(10,11-dihydrobenzo[6,7]oxepino[3,2-b]pyridin-10-yl)methanamine]	≥ 10 µM	1000 to 10000 nM		1000 to 10000 nM	
